PubChem BioAssay AID256 (DTP/NCI, 2004)
Where “and” joins values, the source holds several entries; their conditions need not be identical. Equal entries are not always repeated. Inconclusive results and toxic doses are left out.

System: CD2F1 mice, L1210 leukemia ip, survival T/C
Test: NCI In Vivo Anticancer Drug Screen. Data for tumor model L1210 Leukemia (intraperitoneal) in CD2F1 (CDF1) mice
Conditions: higher = longer survival
How it was run: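 Mice carrying a transplanted tumor received test compound or vehicle alone. The value is the measurement in the treated group divided by that in the vehicle-treated control group.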

[1] = endpoint: mean survival time, dose: 100.0 mg/kg/injection, schedule: Q01DX001 (ip), vehicle: saline with Tween-80
[2] = endpoint: mean survival time, dose: 200.0 mg/kg/injection, schedule: Q01DX001 (ip), vehicle: saline with Tween-80
[3] = endpoint: mean survival time, dose: 400.0 mg/kg/injection, schedule: Q01DX001 (ip), vehicle: saline with Tween-80
[4] = endpoint: mean survival time, dose: 100.0 mg/kg/injection, schedule: Q04DX003 (ip), vehicle: saline with Tween-80
[5] = endpoint: mean survival time, dose: 200.0 mg/kg/injection, schedule: Q04DX003 (ip), vehicle: saline with Tween-80
[6] = endpoint: mean survival time, dose: 400.0 mg/kg/injection, schedule: Q04DX003 (ip), vehicle: saline with Tween-80
[7] = endpoint: mean survival time, dose: 25.0 mg/kg/injection, schedule: Q04DX003 (ip), vehicle: saline
[8] = endpoint: mean survival time, dose: 50.0 mg/kg/injection, schedule: Q04DX003 (ip), vehicle: saline
[9] = endpoint: mean survival time, dose: 100.0 mg/kg/injection, schedule: Q04DX003 (ip), vehicle: saline
[10] = endpoint: mean survival time, dose: 100.0 mg/kg/injection, schedule: Q04DX002 (ip), vehicle: saline with Tween-80
[11] = endpoint: mean survival time, dose: 100.0 mg/kg/injection, schedule: Q01DX009 (ip), vehicle: saline with Tween-80
[12] = endpoint: mean survival time, dose: 200.0 mg/kg/injection, schedule: Q01DX009 (ip), vehicle: saline with Tween-80
[13] = endpoint: mean survival time, dose: 400.0 mg/kg/injection, schedule: Q01DX009 (ip), vehicle: saline with Tween-80
[14] = endpoint: mean survival time, dose: 50.0 mg/kg/injection, schedule: Q01DX009 (ip), vehicle: saline with Tween-80

## CCOC(=O)C(CC(C)C)NC(=O)C(N)Cc1ccc(N(CCCl)CCCl)cc1 (centres undefined)
endpoint: mean survival time, dose: 1.25 mg/kg/injection, schedule: Q01DX009 (ip), vehicle: water
  T/C: 106 % of control
endpoint: mean survival time, dose: 2.5 mg/kg/injection, schedule: Q01DX009 (ip), vehicle: water
  T/C: 115 % of control and 119 % of control
endpoint: mean survival time, dose: 10.0 mg/kg/injection, schedule: Q01DX009 (ip), vehicle: water
  T/C: 169 % of control
endpoint: mean survival time, dose: 20.0 mg/kg/injection, schedule: Q01DX009 (ip), vehicle: water
  T/C: 114 % of control
endpoint: median survival time, dose: 3.6 mg/kg/injection, schedule: Q01DX009 (ip), vehicle: water
  T/C: 118 % of control
endpoint: median survival time, dose: 16.67 mg/kg/injection, schedule: Q01DX009 (ip), vehicle: water
  T/C: 175 % of control
endpoint: median survival time, dose: 27.78 mg/kg/injection, schedule: Q01DX009 (ip), vehicle: water
  T/C: 118 % of control

## CCCC(C#N)(CCC)C(=O)OCC
endpoint: mean survival time, dose: 12.5 mg/kg/injection, schedule: Q01DX001 (ip), vehicle: Klucel (hydroxypropylcellulose) (HPC)
  T/C: 102 % of control
endpoint: mean survival time, dose: 25.0 mg/kg/injection, schedule: Q01DX001 (ip), vehicle: Klucel (hydroxypropylcellulose) (HPC)
  T/C: 99 % of control
endpoint: mean survival time, dose: 50.0 mg/kg/injection, schedule: Q01DX001 (ip), vehicle: Klucel (hydroxypropylcellulose) (HPC)
  T/C: 99 % of control

## COCC(=O)C(C(C)=O)C(c1ccc(OC)cc1)C(C(C)=O)C(=O)COC (centres undefined)
[1]
  T/C: 101 % of control
[2]
  T/C: 98 % of control
[3]
  T/C: 95 % of control

## CCOC(CC)C(O)(c1ccc(N(C)C)cc1)c1ccc(N(C)C)cc1 (centres undefined)
[4]
  T/C: 97 % of control
[5]
  T/C: 102 % of control
[6]
  T/C: 94 % of control

## OC1CCC2CCCCC2C1 (centres undefined)
[7]
  T/C: 107 % of control
[8]
  T/C: 94 % of control
[4]
  T/C: 102 % of control
[9]
  T/C: 98 % of control
[5]
  T/C: 107 % of control
[6]
  T/C: 101 % of control

## CC(C)N1CC(COc2cccc3ccccc23)OP1(=O)N(CCCl)CCCl (centres undefined)
endpoint: mean survival time, dose: 31.25 mg/kg/injection, schedule: Q01DX001 (ip), vehicle: distilled water + Tween-80
  T/C: 101 % of control
endpoint: mean survival time, dose: 62.5 mg/kg/injection, schedule: Q01DX001 (ip), vehicle: distilled water + Tween-80
  T/C: 101 % of control
endpoint: mean survival time, dose: 125.0 mg/kg/injection, schedule: Q01DX001 (ip), vehicle: distilled water + Tween-80
  T/C: 95 % of control and 98 % of control and 101 % of control
endpoint: mean survival time, dose: 250.0 mg/kg/injection, schedule: Q01DX001 (ip), vehicle: distilled water + Tween-80
  T/C: 93 % of control and 103 % of control and 111 % of control
endpoint: mean survival time, dose: 500.0 mg/kg/injection, schedule: Q01DX001 (ip), vehicle: distilled water + Tween-80
  T/C: 90 % of control and 110 % of control
endpoint: mean survival time, dose: 1000.0 mg/kg/injection, schedule: Q01DX001 (ip), vehicle: distilled water + Tween-80
  T/C: 113 % of control and 93 % of control

## NC(=O)C(NCc1ccccc1)c1ccccc1 (centres undefined)
[4]
  T/C: 94 % of control
[5]
  T/C: 99 % of control

## CCOc1ccc(C(=O)OC(CN(CC)CC)c2ccccc2)cc1 (centres undefined)
[7]
  T/C: 102 % of control
[8]
  T/C: 102 % of control
[9]
  T/C: 89 % of control

## Oc1ccccc1C=NCc1ccccc1.Oc1ccccc1C=NCc1ccccc1.[Cu]
[10]
  T/C: 100 % of control
endpoint: mean survival time, dose: 200.0 mg/kg/injection, schedule: Q04DX002 (ip), vehicle: saline with Tween-80
  T/C: 96 % of control
endpoint: mean survival time, dose: 400.0 mg/kg/injection, schedule: Q04DX002 (ip), vehicle: saline with Tween-80
  T/C: 100 % of control

## COc1cc(C)c(Cl)[n+]([O-])n1
endpoint: mean survival time, dose: 3.13 mg/kg/injection, schedule: Q04DX002 (ip), vehicle: saline with Tween-80
  T/C: 104 % of control
endpoint: mean survival time, dose: 6.25 mg/kg/injection, schedule: Q04DX002 (ip), vehicle: saline with Tween-80
  T/C: 104 % of control
endpoint: mean survival time, dose: 12.5 mg/kg/injection, schedule: Q04DX002 (ip), vehicle: saline with Tween-80
  T/C: 97 % of control and 104 % of control

## C/C=C/C(OC(C)=O)OC(C)=O
[11]
  T/C: 97 % of control
[12]
  T/C: 103 % of control

## Nc1nc(N)c2cc(CCc3ccccc3)ccc2n1
endpoint: mean survival time, dose: 6.25 mg/kg/injection, schedule: Q01DX009 (ip), vehicle: saline with Tween-80
  T/C: 105 % of control
endpoint: mean survival time, dose: 6.25 mg/kg/injection, schedule: Q04DX003 (ip), vehicle: saline with Tween-80
  T/C: 98 % of control
endpoint: mean survival time, dose: 12.5 mg/kg/injection, schedule: Q01DX009 (ip), vehicle: saline with Tween-80
  T/C: 100 % of control
endpoint: mean survival time, dose: 12.5 mg/kg/injection, schedule: Q04DX003 (ip), vehicle: saline with Tween-80
  T/C: 98 % of control
endpoint: mean survival time, dose: 25.0 mg/kg/injection, schedule: Q01DX009 (ip), vehicle: saline with Tween-80
  T/C: 104 % of control
endpoint: mean survival time, dose: 25.0 mg/kg/injection, schedule: Q04DX003 (ip), vehicle: saline with Tween-80
  T/C: 98 % of control
endpoint: mean survival time, dose: 50.0 mg/kg/injection, schedule: Q01DX009 (ip), vehicle: Klucel (hydroxypropylcellulose) (HPC)
  T/C: 106 % of control

## Cc1ccc(S/C=C/C(=O)Nc2ccccc2)cc1
endpoint: mean survival time, dose: 25.0 mg/kg/injection, schedule: Q04DX002 (ip), vehicle: saline with Tween-80
  T/C: 101 % of control
endpoint: mean survival time, dose: 50.0 mg/kg/injection, schedule: Q04DX002 (ip), vehicle: saline with Tween-80
  T/C: 94 % of control
[1]
  T/C: 97 % of control
[10]
  T/C: 101 % of control
[4]
  T/C: 87 % of control
[2]
  T/C: 105 % of control
[3]
  T/C: 94 % of control

## CCOC(=O)c1ccc(N(CCO)CCO)cc1
endpoint: mean survival time, dose: 75.0 mg/kg/injection, schedule: Q01DX001 (ip), vehicle: other
  T/C: 94 % of control
endpoint: mean survival time, dose: 150.0 mg/kg/injection, schedule: Q01DX001 (ip), vehicle: other
  T/C: 97 % of control
endpoint: mean survival time, dose: 300.0 mg/kg/injection, schedule: Q01DX001 (ip), vehicle: other
  T/C: 102 % of control

## CC1CC[N-]CC1.CC1CC[N-]CC1.[Cl][Pt+2][Cl]
endpoint: mean survival time, dose: 6.25 mg/kg/injection, schedule: Q01DX001 (ip), vehicle: saline with Tween-80
  T/C: 101 % of control
endpoint: mean survival time, dose: 12.5 mg/kg/injection, schedule: Q01DX001 (ip), vehicle: saline with Tween-80
  T/C: 111 % of control
endpoint: mean survival time, dose: 25.0 mg/kg/injection, schedule: Q01DX001 (ip), vehicle: saline with Tween-80
  T/C: 112 % of control

## COc1c2c(c(OC)c3c1C(=O)c1ccccc1C3=O)CC=CC2
endpoint: mean survival time, dose: 12.5 mg/kg/injection, schedule: Q01DX009 (ip), vehicle: other
  T/C: 105 % of control
endpoint: mean survival time, dose: 25.0 mg/kg/injection, schedule: Q01DX009 (ip), vehicle: other
  T/C: 100 % of control
endpoint: mean survival time, dose: 44.0 mg/kg/injection, schedule: Q01DX009 (ip), vehicle: other
  T/C: 92 % of control
endpoint: mean survival time, dose: 50.0 mg/kg/injection, schedule: Q01DX009 (ip), vehicle: other
  T/C: 96 % of control
endpoint: mean survival time, dose: 66.0 mg/kg/injection, schedule: Q01DX009 (ip), vehicle: other
  T/C: 90 % of control
endpoint: mean survival time, dose: 100.0 mg/kg/injection, schedule: Q01DX009 (ip), vehicle: other
  T/C: 121 % of control and 90 % of control
endpoint: mean survival time, dose: 200.0 mg/kg/injection, schedule: Q01DX009 (ip), vehicle: other
  T/C: 105 % of control

## C=Cc1ccc(Oc2ccccc2)cc1
[4]
  T/C: 93 % of control
[5]
  T/C: 97 % of control
[6]
  T/C: 90 % of control

## O=C(N/N=C/c1cccc([N+](=O)[O-])c1)c1ccccc1
[11]
  T/C: 107 % of control
[12]
  T/C: 102 % of control
[13]
  T/C: 94 % of control

## Cc1ccc(NC(=S)NCCO)cc1
[11]
  T/C: 86 % of control
[12]
  T/C: 92 % of control
[13]
  T/C: 88 % of control

## Cc1cccc(SC(=O)Nc2ccc(Cl)cc2C)c1
[11]
  T/C: 95 % of control
[12]
  T/C: 95 % of control

## COc1cc(C)n2nnnc2n1
endpoint: mean survival time, dose: 100.0 mg/kg/injection, schedule: Q01DX001 (ip), vehicle: saline
  T/C: 107 % of control

## O=C(CC(O)(C(F)(F)F)C(F)(F)F)c1ccco1
[14]
  T/C: 116 % of control
[11]
  T/C: 110 % of control
[4]
  T/C: 105 % of control
[5]
  T/C: 100 % of control

## CC1(C)CC(=O)C=C(OCCc2ccccc2)C1
[11]
  T/C: 102 % of control
[12]
  T/C: 102 % of control
[13]
  T/C: 102 % of control

## O=C(Nc1ccccc1)c1ccccc1C(O)(c1ccccc1)c1ccccn1 (centres undefined)
[4]
  T/C: 97 % of control
[5]
  T/C: 101 % of control
[6]
  T/C: 86 % of control

## Cc1nc2n[nH]c(N)c2nc1C
endpoint: mean survival time, dose: 100.0 mg/kg/injection, schedule: Q01DX009 (ip), vehicle: saline
  T/C: 100 % of control
endpoint: mean survival time, dose: 200.0 mg/kg/injection, schedule: Q01DX009 (ip), vehicle: saline
  T/C: 106 % of control
endpoint: mean survival time, dose: 400.0 mg/kg/injection, schedule: Q01DX009 (ip), vehicle: saline
  T/C: 106 % of control

## O=C(O)C(Cl)(Br)C(Cl)c1ccccc1 (centres undefined)
[4]
  T/C: 100 % of control
[5]
  T/C: 102 % of control
[6]
  T/C: 103 % of control

## COc1cc2c(cc1O)CCCC=C2
[14]
  T/C: 100 % of control
[11]
  T/C: 96 % of control
[12]
  T/C: 92 % of control
